How the values were obtained:
Type in all cases: cell-based
Citrobacter koseri (012) = assay: L-alanine-aminopeptidase activity on gelled medium, Example 4; details: 0.3 g/l, after the addition of HCl
Description: (§1) A gelled medium comprising L-Ala-2-MeOAPA or L-Ala-2,5-diMeOAPA is prepared as follows: 46.37 g of Columbia agar are added to 1 liter of distilled water and then autoclaved. This reaction medium is separated into two media of equivalent volume. Each of these media comprises, respectively: 0.3 g/l of L-Ala-2-MeOAPA, introduced by means of a stock solution in DMSO, and 0.3 g/l of L-Ala-2,5-diMeOAPA, also introduced by means of a stock solution in DMSO. Microorganisms derived from the applicant's collection were seeded onto each of the media, by delimitation as three dials, using a suspension at 0.5 McFarland. The dishes were incubated at 37° C. for 24 hours. The color of these colonies and also the intensity of this color were noted after the addition of HCl.

Escherichia coli (032) [1] = assay: as above; details: 0.3 g/l, after the addition of HCl
Description: as §1

Candida albicans (077) = assay: as above; details: 0.3 g/l, after the addition of HCl
Description: as §1, with “The dishes were incubated at 37° C. for 24 hours.” left out

[2] = test system: Enterobacter cloacae (061); assay: as above; details: 0.3 g/l, after the addition of HCl
Description: as §1, with “The dishes were incubated at 37° C. for 24 hours.” left out

[3] = test system: Enterococcus faecalis (117); assay: as above; details: 0.3 g/l, after the addition of HCl
Description: as §1, with “The dishes were incubated at 37° C. for 24 hours.” left out

[4] = test system: Klebsiella pneumoniae (023); assay: as above; details: 0.3 g/l, after the addition of HCl
Description: as §1, with “The dishes were incubated at 37° C. for 24 hours.” left out

Listeria innocua (036) [5] = assay: as above; details: 0.3 g/l, after the addition of HCl
Description: as §1, with “The dishes were incubated at 37° C. for 24 hours.” left out

Proteus mirabilis (037) = assay: as above; details: 0.3 g/l, after the addition of HCl
Description: as §1, with “The dishes were incubated at 37° C. for 24 hours.” left out

[6] = test system: Staphylococcus aureus (035); assay: as above; details: 0.3 g/l, after the addition of HCl
Description: as §1, with “The dishes were incubated at 37° C. for 24 hours.” left out

[7] = test system: Streptococcus agalactiae (001); assay: as above; details: 0.3 g/l, after the addition of HCl
Description: as §1, with “The dishes were incubated at 37° C. for 24 hours.” left out

Candida albicans (056) = assay: L-alanine-aminopeptidase activity on gelled medium, Example 2
Description: (§2) A gelled medium comprising L-Ala-4-AP-10-AA as substrate is prepared as follows: 46.37 g of Columbia agar are added to 1 liter of distilled water and then autoclaved. The reaction medium is separated into three media of equivalent volume. Each of these media comprises, respectively, 0.1 g/l, 0.2 g/l, 0.4 g/l of L-Ala-4-AP-10-AA provided by means of a stock solution in DMSO.
(§3) Microorganisms derived from the applicant's collection were seeded onto each of the media, by delimitation as three dials, using a suspension at 0.5 McFarland. The dishes were incubated at 37° C. for 48 hours. The colonies formed were examined visually after incubation for 24 and 48 hours. The color of these colonies and also the intensity of this color were noted.
(§4) The results are expressed as color intensity, using an arbitrary scale range of from 0 to 4 as a basis.

Citrobacter koseri (090) = assay: as above; details: for Intensity: scale 0 to 4
Description: as §2, §3, §4

[8] = test system: Enterococcus faecalis (075); assay: as above; details: for Intensity: scale 0 to 4
Description: as §2, §3, §4

Escherichia coli (032) [9] = assay: as above; details: for Intensity: scale 0 to 4
Description: as §2, §3, §4

[10] = test system: Klebsiella pneumoniae (023); assay: as above; details: for Intensity: scale 0 to 4
Description: as §2, §3, §4

Listeria innocua (036) [11] = assay: as above
Description: as §2, §3, §4

Proteus mirabilis (103) = assay: as above; details: for Intensity: scale 0 to 4
Description: as §2, §3, §4

[12] = test system: Staphylococcus aureus (070); assay: as above
Description: as §2, §3, §4

[13] = test system: Streptococcus pyogenes (067); assay: as above
Description: as §2, §3, §4

For `COc1cc(-c2c3ccccc3nc3ccccc23)ccc1NC(=O)[C@H](C)N` [L-Ala-2-MeOAPA, L-alanyl-2-methoxy-aminophenylacridine], the Color (Citrobacter koseri (012); 24 H) was “orange”, the Intensity (Citrobacter koseri (012); 24 H) was 2 and the Color (Citrobacter koseri (012); 48 h) was “pink”. For the same compound, the Intensity (Citrobacter koseri (012); 48 h) was 3.5, the Color (Escherichia coli (032) [1]; 24 H) was “orange” and the Intensity (Escherichia coli (032) [1]; 24 H) was 0.5. The Color (Escherichia coli (032) [1]; 48 h) was “pink”, the Intensity (Escherichia coli (032) [1]; 48 h) was 3.5 and the Color (Candida albicans (077); 24 H) was “inhibited”. The Color (Candida albicans (077); 48 h) was “inhibited”, the Color ([2]; 24 H) was “pink” and the Intensity ([2]; 24 H) was 2. For the same compound, the Color ([2]; 48 h) was “pink”, the Intensity ([2]; 48 h) was 2 and the Color ([3]; 24 H) was “inhibited”. For the same compound, the Color ([3]; 48 h) was “inhibited”, the Color ([4]; 24 H) was “pink” and the Intensity ([4]; 24 H) was 3. For the same compound, the Color ([4]; 48 h) was “pink”, the Intensity ([4]; 48 h) was 3.5 and the Color (Listeria innocua (036) [5]; 24 H) was “colorless*”. For the same compound, the Intensity (Listeria innocua (036) [5]; 24 H) was 0, the Color (Listeria innocua (036) [5]; 48 h) was “colorless*” and the Intensity (Listeria innocua (036) [5]; 48 h) was 0. For the same compound, the Color (Proteus mirabilis (037); 24 H) was “orange”, the Intensity (Proteus mirabilis (037); 24 H) was 1 and the Color (Proteus mirabilis (037); 48 h) was “orange”. The Intensity (Proteus mirabilis (037); 48 h) was 1.5, the Color ([6]; 24 H) was “colorless*” and the Intensity ([6]; 24 H) was 0. For the same compound, the Color ([6]; 48 h) was “colorless*”, the Intensity ([6]; 48 h) was 0 and the Color ([7]; 24 H) was “inhibited”. The Color ([7]; 48 h) was “inhibited”.

For `C=CC[n+]1c2ccccc2c(-c2ccc(NC(=O)[C@H](C)N)cc2)c2ccccc21.[Cl-]` [L-Ala-4-AP-10-AA, L-alanyl-9-(4-aminophenyl)-10-allylacridinium chloride], the Color (Candida albicans (056); 0.1 g/l, 24 H) was “colorless”, the Color (Candida albicans (056); 0.1 g/l, 48 h) was “colorless” and the Color (Candida albicans (056); 0.2 g/l, 24 H) was “colorless”. For the same compound, the Color (Candida albicans (056); 0.2 g/l, 48 h) was “colorless”, the Color (Candida albicans (056); 0.4 g/l, 24 H) was “colorless” and the Color (Candida albicans (056); 0.4 g/l, 48 h) was “colorless”. The Color (Citrobacter koseri (090); 0.1 g/l, 24 H) was “beige”, the Intensity (Citrobacter koseri (090); 0.1 g/l, 24 H) was 0.5 and the Color (Citrobacter koseri (090); 0.1 g/l, 48 h) was “beige”. For the same compound, the Intensity (Citrobacter koseri (090); 0.1 g/l, 48 h) was 0.5, the Color (Citrobacter koseri (090); 0.2 g/l, 24 H) was “pink-” and the Intensity (Citrobacter koseri (090); 0.2 g/l, 24 H) was 1. The Color (Citrobacter koseri (090); 0.2 g/l, 48 h) was “pink-”, the Intensity (Citrobacter koseri (090); 0.2 g/l, 48 h) was 2 and the Color (Citrobacter koseri (090); 0.4 g/l, 24 H) was “pink-”. For the same compound, the Intensity (Citrobacter koseri (090); 0.4 g/l, 24 H) was 3, the Color (Citrobacter koseri (090); 0.4 g/l, 48 h) was “pink-” and the Intensity (Citrobacter koseri (090); 0.4 g/l, 48 h) was 3.5. The Color ([8]; 0.1 g/l, 24 H) was “colorless”, the Color ([8]; 0.1 g/l, 48 h) was “colorless” and the Color ([8]; 0.2 g/l, 24 H) was “orange”. The Intensity ([8]; 0.2 g/l, 24 H) was “traces”, the Color ([8]; 0.2 g/l, 48 h) was “orange” and the Intensity ([8]; 0.2 g/l, 48 h) was 0.5. For the same compound, the Color ([8]; 0.4 g/l, 24 H) was “orange”, the Intensity ([8]; 0.4 g/l, 24 H) was “traces” and the Color ([8]; 0.4 g/l, 48 h) was “orange”. The Intensity ([8]; 0.4 g/l, 48 h) was 1, the Color (Escherichia coli (032) [9]; 0.1 g/l, 24 H) was “beige” and the Intensity (Escherichia coli (032) [9]; 0.1 g/l, 24 H) was 0.5. For the same compound, the Color (Escherichia coli (032) [9]; 0.1 g/l, 48 h) was “beige”, the Intensity (Escherichia coli (032) [9]; 0.1 g/l, 48 h) was 0.5 and the Color (Escherichia coli (032) [9]; 0.2 g/l, 24 H) was “pink-”. The Intensity (Escherichia coli (032) [9]; 0.2 g/l, 24 H) was 2, the Color (Escherichia coli (032) [9]; 0.2 g/l, 48 h) was “pink-” and the Intensity (Escherichia coli (032) [9]; 0.2 g/l, 48 h) was 2. For the same compound, the Color (Escherichia coli (032) [9]; 0.4 g/l, 24 H) was “pink-”, the Intensity (Escherichia coli (032) [9]; 0.4 g/l, 24 H) was 2.5 and the Color (Escherichia coli (032) [9]; 0.4 g/l, 48 h) was “pink-”. The Intensity (Escherichia coli (032) [9]; 0.4 g/l, 48 h) was 3, the Color ([10]; 0.1 g/l, 24 H) was “beige” and the Intensity ([10]; 0.1 g/l, 24 H) was “traces”. The Color ([10]; 0.1 g/l, 48 h) was “beige”, the Intensity ([10]; 0.1 g/l, 48 h) was “traces” and the Color ([10]; 0.2 g/l, 24 H) was “pink-”. For the same compound, the Intensity ([10]; 0.2 g/l, 24 H) was 1, the Color ([10]; 0.2 g/l, 48 h) was “pink-” and the Intensity ([10]; 0.2 g/l, 48 h) was 2. For the same compound, the Color ([10]; 0.4 g/l, 24 H) was “pink-”, the Intensity ([10]; 0.4 g/l, 24 H) was 3 and the Color ([10]; 0.4 g/l, 48 h) was “pink-”. The Intensity ([10]; 0.4 g/l, 48 h) was 3.5, the Color (Listeria innocua (036) [11]; 0.1 g/l, 24 H) was “colorless” and the Color (Listeria innocua (036) [11]; 0.1 g/l, 48 h) was “colorless”. The Color (Listeria innocua (036) [11]; 0.2 g/l, 24 H) was “colorless”, the Color (Listeria innocua (036) [11]; 0.2 g/l, 48 h) was “colorless” and the Color (Listeria innocua (036) [11]; 0.4 g/l, 24 H) was “colorless”. The Color (Listeria innocua (036) [11]; 0.4 g/l, 48 h) was “colorless”, the Color (Proteus mirabilis (103); 0.1 g/l, 24 H) was “beige” and the Intensity (Proteus mirabilis (103); 0.1 g/l, 24 H) was “traces”. For the same compound, the Color (Proteus mirabilis (103); 0.1 g/l, 48 h) was “beige”, the Intensity (Proteus mirabilis (103); 0.1 g/l, 48 h) was “traces” and the Color (Proteus mirabilis (103); 0.2 g/l, 24 H) was “pink-”. The Intensity (Proteus mirabilis (103); 0.2 g/l, 24 H) was 0.5, the Color (Proteus mirabilis (103); 0.2 g/l, 48 h) was “pink-” and the Intensity (Proteus mirabilis (103); 0.2 g/l, 48 h) was 1. For the same compound, the Color (Proteus mirabilis (103); 0.4 g/l, 24 H) was “pink-”, the Intensity (Proteus mirabilis (103); 0.4 g/l, 24 H) was 3 and the Color (Proteus mirabilis (103); 0.4 g/l, 48 h) was “pink-”. The Intensity (Proteus mirabilis (103); 0.4 g/l, 48 h) was 3, the Color ([12]; 0.1 g/l, 24 H) was “inhibited” and the Color ([12]; 0.1 g/l, 48 h) was “inhibited”. The Color ([12]; 0.2 g/l, 24 H) was “inhibited”, the Color ([12]; 0.2 g/l, 48 h) was “inhibited” and the Color ([12]; 0.4 g/l, 24 H) was “inhibited”. For the same compound, the Color ([12]; 0.4 g/l, 48 h) was “inhibited”, the Color ([13]; 0.1 g/l, 24 H) was “inhibited” and the Color ([13]; 0.1 g/l, 48 h) was “colorless”. The Color ([13]; 0.2 g/l, 24 H) was “inhibited”, the Color ([13]; 0.2 g/l, 48 h) was “colorless” and the Color ([13]; 0.4 g/l, 24 H) was “inhibited”. For the same compound, the Color ([13]; 0.4 g/l, 48 h) was “colorless”.

From patent publication US7223865B2, “Chromogenic compounds, and use thereof as enzyme substrates” (Biomerieux, priority 2003, dated 2007)
